Experimental findings from US10561591B2, “Hair care regimen using compositions comprising moisture control materials” (The Procter & Gamble Company, priority 2015, dated 2020) are described below.

A short description of the first assay: Penetration amount of moisture control material inside hair (extraction with 0.1% TFA in methanol, HPLC). Conditions: 2% 2-hydroxyethyl urea versus composition without (example III and IV).
Description: Each hair tress is extracted 3 times with 0.1% TFA (Trifluoroacetic acid) in methanol and the individual extracts are analyzed separately using HPLC method.
As to `O=C(O)c1ccccc1O` [Salicylic acid], the “increase of penetration of salicylic acid inside hair by 2-hydroxyethyl urea” value turned out to be 14%.

A short description of a further assay: Expert rating of hair switches for frizz, clean feel and greasy feel (5 point scale) after high humidity. The following applies: 1% in ethanol/water leave-on. How it is done:
(§1) Additional leave-on treatment compositions are prepared (Tables 1 and 2) according to the procedure described above, which are used to treat hair switches using the procedure described above (amount of 0.10 g of composition per g of hair). […] Then, ten experts are asked to rate each hair switch in terms of frizz, clean feel, and greasy feel, based on a 5 point scale, 5 being the highest and 1 being the lowest rating.
Acceptable values are: • For frizz, less than 2 (lower number corresponds to less frizz); • For no greasy feel less than 3, (lower number corresponds to less greasy feel), and • For clean feel greater than 3 (higher number corresponds to cleaner feel).
as §1, with “(Tables 6” for “(Tables 1”, “and 7)” for “and 2)”, “rating. Acceptable values are: • For frizz, less than 2 (lower number corresponds to less frizz); • For no greasy feel less than 3, (lower number corresponds to less greasy feel), and • For clean feel greater than 3 (higher number corresponds to cleaner feel).” for “rating.”
For the compound `O=C(O)c1cc(Cl)ccc1O` [5-Chlorosalicylic acid], the “hair switch rating (frizz, clean feel, greasy feel), in words” value was “provide fizz protection with clean feel and without greasy feel negative”. On the same count and under the same terms, the entry for `O=C(OCCO)c1ccccc1O` [2-Hydroxyethyl salicylate] is “provide frizz protection with clean feel and without greasy feel negative”. On the same count and under the same terms, the entry for `CC(C)CCCCCCCCCCCCCCCOC(=O)CCCCCCCCCCCCCCC(C)C` [Isostearyl isostearate] is “provide frizz protection with clean feel and without greasy feel negative”; for `CCCCCCCCC(CO)CCCCCC` (stereo not drawn) [2-Hexyl-1-decanol] it is “provide frizz protection with clean feel and without greasy feel negative”. Consider `O=S(=O)(O)c1ccc(O)cc1` [4-Hydroxybenzenesulphonic acid], for which the “hair switch rating (frizz, clean feel, greasy feel), in words” value is “provide fizz protection with clean feel and without greasy feel negative”. Still for that read-out and setting: the entry for `O=C(O)c1ccccc1O` [Salicylic acid] is “provide fizz protection with clean feel and without greasy feel negative”; for `O=C(O)c1ccc(O)cc1O` [2,4-Dihydroxybenzoic acid] it is “provide fizz protection with clean feel and without greasy feel negative”.

A short description of another assay: Dynamic Vapor Sorption (DVS) measurement: % water reduction of treated hair versus control.
Conditions: not given
How it is done: The % water reduction is calculated as follows: […]
Leave-on Treatment Formulation: […]
Turning to `O=CC(=O)O` [glyoxylic acid], the “% water reduction in regimen, in words” value is recorded as “further increase % water reduction”.
